Reference: US20130165475A1, “DEUTERIUM-ENRICHED HETEROCYCLIC COMPOUNDS AS KINASE INHIBITORS” (ASCEPION PHARMACEUTICALS, INC., priority 2010, published 2013)

Assays:
[1] = Oral bioavailability study, Group 2 (rats); type: in vivo, male SD rat
Experimental: Oral pharmacokinetic studies on rats were performed on Example 2, this compound was dissolved in PEG-400 (2:1 mixture of PEG400 and 0.01N HCL (v/v)) and administered orally to male SD rat at a dose of 50 mg/kg. Rat blood was obtained from tail vein at 0.25, 0.5, 1, 2, 3, 4, 6, 8, 12, and 24 hours after administration. The blood concentration of Example 2 was determined using appropriate internal standards and reverse phase HPLC with UV detection. Control blood samples were also run to identify compound-specific peaks. The oral bioavailability was determined by comparing the dose corrected areas under plasma-concentration time curve (AUC) to infinity for Example 2, given orally and intravenously in rats.

[2] = system: HT-29 human colon cancer cells; test: In vivo anti-tumor efficacy, HT-29 xenograft; settings: HT-29 s.c. in nu/nu Balb/c athymic mice, 50 mg/kg once per day oral gavage
Experimental: (§1) Female (nu/nu) Balb/c athymic mice at 4-6 weeks of age were injected subcutaneously (s.c.) with MDA-MB-231 human breast cancer cells, A549 human non-small cell lung cancer cells, BEL7401 human liver cancer cells, HT-29 human colon cancer cells, or MKN-45 human gastric cancer cells (ATCC, 5×10^6 cells suspended in 100 μl DMEM medium). Treatment was initiated after the tumor mass grown from subcutaneous implanted tumor cells reaches a median volume of 200-400 mm^3. Mice were randomized into groups with three in each group such that the median tumor volume is nearly equal among all groups. […] Tumor volumes were assessed at least twice weekly by caliper measurement from the start of treatment. Tumor volume was calculated using the formula ½×L×W^2 (L: length of tumor's long axis, W: length of tumor's short axis). […] The efficacy of compounds in reducing tumor growth was assessed by the index Tumor Growth Inhibition (TGI). TGI for a given treatment period was calculated using the group mean tumor volumes according to the formula: TGI=100×(Vvehicle—group−VTreatment—group)÷VVehicle—group wherein VVehicle—group representing the mean tumor volume for the group treated with vehicle and VTreatment—group representing the mean tumor volume of the group treated with a compound.

[3] = system: A549 human non-small cell lung cancer cells; test: In vivo anti-tumor efficacy, A549 xenograft; settings: A549 s.c. in nu/nu Balb/c athymic mice, 50 mg/kg once per day oral gavage
Experimental: as §1

BEL7404 = test: In vivo anti-tumor efficacy, BEL7404 xenograft; design: species or system human; settings: Liver cancer, BEL7404 s.c. in nu/nu Balb/c athymic mice, 50 mg/kg once per day oral gavage
[4] = system: MDA-MB-231 human breast cancer cells; test: In vivo anti-tumor efficacy, MDA-MB-231 xenograft; settings: MDA-MB-231 s.c. in nu/nu Balb/c athymic mice, 50 mg/kg once per day oral gavage
Experimental: as §1

[5] = Oral bioavailability study, Group 1 (mice); type: in vivo, male ICR mice
Experimental: Oral pharmacokinetic studies were performed on Example 2. Specifically, this compound was dissolved in PEG-400 (2:1 mixture of PEG400 and 0.01N HCL (v/v)) and administered orally to male ICR mice at a dose of 50 mg/kg. Mice blood was obtained via eyeball enucleation at 0.25, 0.5, 1, 2, 3, 4, 6, 8, 12 and 24 hours after administration. The concentration of Example 2 in blood was determined using appropriate internal standards and reverse phase HPLC with UV detection.
Control blood samples were also used to identify compound-specific peaks. The oral bioavailability was determined by comparing the dose corrected areas under plasma-concentration time curve (AUC) to infinity for Example 2, given orally and intravenously in mice.

[6] = system: MKN-45 human gastric cancer cells; test: In vivo anti-tumor efficacy, MKN-45 xenograft; settings: MKN-45 s.c. in nu/nu Balb/c athymic mice, 50 mg/kg once per day oral gavage
Experimental: as §1

bioavailability ([1]; plasma, male SD rat, 50 mg/kg oral, AUC to infinity oral vs intravenous): > 67%
amount detected in blood after oral dosing ([1]; rat study, 0.25 hours after 50 mg/kg oral dosing): substantial amounts
half-life ([1]; whole blood, male SD rat, 50 mg/kg oral): 2 to 3 h
amount detected in blood after oral dosing ([5]; mice, 0.25 hour after 50 mg/kg oral dosing): substantial amounts
bioavailability ([5]; mouse, plasma, male ICR mice, 50 mg/kg oral, AUC to infinity oral vs intravenous): > 88%
half-life ([5]; mouse, whole blood, male ICR mice, 50 mg/kg oral): 2.3 to 3.5 h
Structure (SMILES): Cl.[2H]C([2H])(c1ccnc(N)c1)n1ccc2c(NC(=O)Nc3cc(Cl)ccc3OC)cccc21 [Example 2, 1-[1-[(2-amino-4-pyridyl)-dideuteriomethyl]indol-4-yl]-3-(5-chloro-2-methoxyphenyl)urea hydrochloride]
Tumor Growth Inhibition (TGI) [2]: A (the TGI is greater or equal to 50%)
Tumor Growth Inhibition (TGI) [3]: A (the TGI is greater or equal to 50%)
Tumor Growth Inhibition (TGI) (BEL7404): A (the TGI is greater or equal to 50%)
Tumor Growth Inhibition (TGI) [4]: A (the TGI is greater or equal to 50%)
Tumor Growth Inhibition (TGI) [6]: A (the TGI is greater or equal to 50%)
